Eleven molecules from ChEMBL document CHEMBL1201862, “PubChem BioAssay data set” (2004) can be followed below.

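Where inhibition never reached the appropriate level, the endpoint shown equals the highest concentration tested. Otherwise, values were interpolated linearly from a five-concentration, 48-hour dose response in 96-well plates. At the GI50, growth is halved.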 The source made the active and inactive calls. Rule as the data show it: active = GI50 up to about 1.1 µM and inactive = higher. Some results are limits rather than exact numbers.

Test in all cases: NCI-60 cell line screen, 48 h
Assay [1] deals with SF-295.
In assay [2] the test system is PC-3.
Assay [3] has as its system NCI-H460.
For assay [4], the system named is HCT-116.
Assay [5] relates to SNB-19.
For assay [6], the system named is HL-60.
Assay [7] relates to SK-MEL-2.
For assay [8], the system named is COLO 205.
Assay [9] concerns MCF7.
The test system of assay [10] is SN12C.
Assay [11] has as its system SW-620.
Assay [12] relates to NCI-H522.
Assay [13] has as its system UACC-257.
The test system of assay [14] is NCI-H226.
The subject of assay [15] is OVCAR-5.
In assay [16] the test system is UO-31.
The test system of assay [17] is Malme-3M.
Assay [18] concerns U-251.
Assay [19] concerns K562.
The test system of assay [20] is SF-539.

Turning to `Nc1cccc(OCc2nc(N)nc(N)c2-c2ccc(Cl)cc2)c1`, the GI50 in assay [1] is 64.1 µM (inactive); in [2], 41.3 µM (inactive); in [3], 32.9 µM (inactive); in [4], 44.7 µM (inactive); in assay [5] it was > 100 µM (inactive); in assay [6], 23.8 µM (inactive). Further, the GI50 in assay [7] was > 100 µM (inactive); in assay [8], 18.6 µM (inactive); in assay [9], 37.8 µM (inactive); in assay [10], 51.3 µM (inactive); in assay [11] it was 50.6 µM (inactive); in assay [12], 57.5 µM (inactive). Besides, the GI50 in [13] is 41.1 µM (inactive); in assay [14], 12.4 µM (inactive); in assay [15] it was > 100 µM (inactive); in assay [16], 36.3 µM (inactive); in assay [17], > 100 µM (inactive); in assay [18] it was 64.9 µM (inactive). The GI50 in [19] is 23.9 µM (inactive).

On to `COc1ccc(C2Oc3ccc(Cl)cc3C=C2[N+](=O)[O-])cc1` (stereo not drawn), for which the GI50 in [1], in [2], in assay [3], in assay [4], in [5] and in assay [6] was > 100 µM (inactive) in each case. Besides, the GI50 in assay [8], in [9], in assay [10], in [12], in assay [13] and in assay [15] was > 100 µM (inactive) throughout. Besides, the GI50 in assay [16], in assay [17], in [18] and in assay [19] was > 100 µM (inactive) throughout.

As to `Cc1cc2nc3c(C#N)c4c(c(-c5ccc(Cl)cc5)n3c2cc1C)CCC4`, the GI50 is 17.2 µM (inactive) in assay [1]; 29.2 µM (inactive) in [2]; 43.2 µM (inactive) in assay [3]; 18.7 µM (inactive) in assay [4]; 20.8 µM (inactive) in assay [5]; 21.4 µM (inactive) in assay [6]. Moreover, the GI50 is 19 µM (inactive) in [7]; 19.8 µM (inactive) in [8]; 33.1 µM (inactive) in [9]; 30.3 µM (inactive) in assay [10]; 30.4 µM (inactive) in [11]; 18.7 µM (inactive) in assay [12]. Besides, the GI50 in [13] was 21.4 µM (inactive); in [14], 21.1 µM (inactive); in assay [16] it was 19.9 µM (inactive); in assay [17], 23.3 µM (inactive); in assay [20], 29.2 µM (inactive); in assay [18] it was 28.8 µM (inactive). Further, the GI50 in assay [19] is 23.1 µM (inactive).

Turning to `COc1cccc(C2CC(=O)c3cccn32)c1` (stereo not drawn), the GI50 in [1] is > 100 µM (inactive); in [2], 73.3 µM (inactive); in [4], > 100 µM (inactive); in assay [5] it was > 100 µM (inactive); in [6] it was 32.4 µM (inactive); in assay [7], > 100 µM (inactive). Moreover, the GI50 in assay [8], in [9], in [10], in assay [11], in assay [12] and in [13] was > 100 µM (inactive) throughout. For the same molecule, the GI50 in [14] is > 100 µM (inactive); in [15], > 100 µM (inactive); in assay [16], 29.4 µM (inactive); in assay [20] it was > 100 µM (inactive); in [18], > 100 µM (inactive); in [19] it was > 100 µM (inactive).

Turning to `O=C1N/C(=N/N=C/c2c[nH]c3ccccc23)N/C1=C\c1c[nH]c2ccccc12`, the GI50 in assay [1] was 21.4 µM (inactive); in assay [2], 15.7 µM (inactive); in assay [3], 36.8 µM (inactive); in assay [4] it was 19.1 µM (inactive); in assay [5], 69.7 µM (inactive); in [6], 18.9 µM (inactive). Besides, the GI50 was 20.3 µM (inactive) in assay [7]; 13.8 µM (inactive) in assay [8]; 16 µM (inactive) in [9]; 34.9 µM (inactive) in assay [10]; 18.2 µM (inactive) in assay [11]; 11.9 µM (inactive) in [12]. Moreover, the GI50 in [13] was 28.5 µM (inactive); in assay [14], 17 µM (inactive); in assay [15] it was 39.4 µM (inactive); in [17], 15.5 µM (inactive); in [20], 22.1 µM (inactive); in assay [18], 17.3 µM (inactive). The GI50 in assay [19] was 14.7 µM (inactive).

On to `COc1ccc(/C=c2\c(=O)[nH]c3nc4ccccc4c(=O)n23)cc1`, for which the GI50 is > 100 µM (inactive) in assay [1]; > 100 µM (inactive) in assay [2]; 70 µM (inactive) in assay [4]; > 100 µM (inactive) in assay [5]; 36.2 µM (inactive) in [6]; > 100 µM (inactive) in assay [7]. Besides, the GI50 in [8] was 60.8 µM (inactive); in assay [9], 49.9 µM (inactive); in [10] it was 55.1 µM (inactive); in assay [11], 36.1 µM (inactive); in assay [12], 37.3 µM (inactive); in assay [13] it was 88.9 µM (inactive). The GI50 in [14] is 74.6 µM (inactive); in assay [15], > 100 µM (inactive); in assay [16], 44.7 µM (inactive); in assay [17], 58.5 µM (inactive); in assay [20] it was 46.5 µM (inactive); in assay [18], > 100 µM (inactive).

As to `Cc1cn(C2CC(N=[N+]=[N-])C(COP(=O)(O)OCC3OC(n4cc(F)c(=O)[nH]c4=O)CC3O)O2)c(=O)[nH]c1=O` (stereo not drawn), the GI50 is 0.337 µM (active) in assay [1]; > 100 µM (inactive) in [2]; 0.0292 µM (active) in [3]; 4.21 µM (inactive) in [4]; > 31.6 µM (inactive) in assay [5]; 9.1 µM (inactive) in assay [6]. Also, the GI50 was > 100 µM (inactive) in assay [7]; > 100 µM (inactive) in assay [8]; 0.137 µM (active) in [9]; > 100 µM (inactive) in assay [10]; 4.56 µM (inactive) in [11]; > 100 µM (inactive) in [12]. Besides, the GI50 in assay [13] was 96.6 µM (inactive); in assay [14] it was > 100 µM (inactive); in assay [15], > 100 µM (inactive); in assay [16], 0.465 µM (active); in assay [20] it was 0.0438 µM (active); in assay [18], > 25.5 µM (inactive).

For `CNC(=O)N1CCN(C(=O)NC)CCN(C(=O)NC)CC1`, the GI50 in assay [1], in assay [2], in assay [3], in [4], in [5] and in assay [6] was > 100 µM (inactive) throughout. Besides, the GI50 in [7], in [8], in [9], in assay [10], in assay [11] and in assay [12] was > 100 µM (inactive) in each case. In addition, the GI50 in assay [13], in assay [14], in assay [15], in assay [16], in assay [17] and in assay [18] was > 100 µM (inactive) throughout. Also, the GI50 in assay [19] is > 100 µM (inactive).

`C/C(=N\NC(=S)N/N=C(\C)c1ccccn1)c1ccccn1`: the GI50 was 1.57 µM (inactive) in assay [1]; 1.27 µM (inactive) in assay [2]; 0.533 µM (active) in assay [3]; 1.84 µM (inactive) in assay [4]; 3.56 µM (inactive) in assay [5]; > 100 µM (inactive) in assay [6]. Besides, the GI50 in assay [8] is 3 µM (inactive); in assay [9] it was 1.85 µM (inactive); in [10] it was 0.345 µM (active); in [11], 1.75 µM (inactive); in [12] it was 6.49 µM (inactive); in assay [13] it was 4.09 µM (inactive). For the same molecule, the GI50 in [14] is 0.738 µM (active); in [15], 0.675 µM (active); in assay [16], 0.809 µM (active); in [17], 2.38 µM (inactive); in assay [20], 0.979 µM (active); in assay [18], 0.771 µM (active). Besides, the GI50 in assay [19] is 1.92 µM (inactive).

For the molecule `O=c1[nH]c(=S)c2cc3c(=S)[nH]c(=O)n(CCO)c3nc2n1CCO`, the GI50 in [1], in assay [2], in [3], in assay [4], in assay [5] and in [7] was > 100 µM (inactive) each time. Besides, the GI50 in [8], in assay [9], in assay [10], in assay [11], in [12] and in assay [13] was > 100 µM (inactive) each time. Further, the GI50 in [14], in assay [15], in [16], in assay [17], in assay [20] and in [18] was > 100 µM (inactive) throughout. For the same molecule, the GI50 in assay [19] is > 100 µM (inactive).

On to `O=C1OC(C2OC(=O)c3cc(O)c(O)c(O)c3-c3c(O)c(O)c4oc(=O)c5c(c(O)c(O)c6oc(=O)c3c4c65)-c3c(cc(O)c(O)c3O)C(=O)OCC2O)C2OC(=O)c3c(c(O)c(O)c(O)c3[C@H]2O)-c2c1cc(O)c(O)c2O` (stereo partly drawn), for which the GI50 was 16.6 µM (inactive) in [1]; 36.4 µM (inactive) in assay [2]; 24.9 µM (inactive) in assay [3]; 17.3 µM (inactive) in [4]; 96.8 µM (inactive) in assay [5]; 13.7 µM (inactive) in assay [6]. The GI50 in [7] is 31.6 µM (inactive); in assay [8], 14.8 µM (inactive); in assay [9] it was 6.05 µM (inactive); in assay [10] it was 15.9 µM (inactive); in [11] it was 19 µM (inactive); in assay [12], 17.1 µM (inactive). In addition, the GI50 in assay [13] was 32 µM (inactive); in assay [14] it was 16.8 µM (inactive); in [15] it was 19.7 µM (inactive); in assay [16], 16.4 µM (inactive); in [17], 31.6 µM (inactive); in assay [18], 20.9 µM (inactive). Further, the GI50 in assay [19] is 19.2 µM (inactive).
